In EPA's ToxRefDB 2:

How the values were obtained:
rat [1] = settings: Sub-acute repeat dose toxicity; Oral; Gavage/Intubation; dose end: 14 day; group: systemic; systemic / in life observation / clinical signs / convulsions + systemic / in life observation / clinical signs / reduced activity + …
dog [2] = settings: Sub-acute repeat dose toxicity, beagle, Oral, Gavage/Intubation, dose end: 14 day, group: systemic
rat [3] = settings: Sub-acute repeat dose toxicity, Oral, Gavage/Intubation, dose end: 7 day, group: systemic
rat [4] = settings: Sub-acute repeat dose toxicity, sprague dawley, Oral, Gavage/Intubation, dose end: 30 day, group: systemic
rat [5] = settings: Sub-acute repeat dose toxicity, sprague dawley, Oral, Gavage/Intubation, dose end: 14 day, group: systemic
rat [6] = settings: Subchronic oral toxicity in rodents, sprague dawley, Feed, dose end: 90 day, group: systemic
rat [7] = settings: Subchronic oral toxicity in rodents, sprague dawley, Feed, dose end: 93 day, group: systemic
rat [8] = settings: Subchronic oral toxicity in rodents, sprague dawley, Feed, dose end: 90 day, group: systemic, systemic / in life observation / body weight / body weight + systemic / in life observation / body weight / body weight gain + systemic / in…
rat [9] = settings: Prenatal developmental toxicity study, sprague dawley, Oral, Gavage/Intubation, dose end: 15 GD
rat [10] = settings: Subchronic oral toxicity in rodents, sprague dawley, Feed, dose end: 90 day, group: systemic; remark: listed apart in the source
mouse [11] = settings: Subchronic oral toxicity in rodents, other, Feed, dose end: 90 day, group: systemic
mouse [12] = settings: Carcinogenicity, cd1, Oral, Feed, dose end: 81 week, group: systemic
rat [13] = settings: Multigenerational reproductive toxicity study, sprague dawley, Oral, Feed, dose end: 2 generation; for LOAEL: systemic / organ weight / brain / nos
rat [14] = settings: Combined chronic toxicity/carcinogenicity, sprague dawley, Oral, [Not Specified], dose end: 2 year, group: systemic
dog [15] = settings: Chronic toxicity, beagle, Oral, Capsule, dose end: 12 month, group: systemic
[16] = systemic / in life observation / clinical signs / abnormal feces + systemic / in life observation / clinical signs / arrhythmia
[17] = systemic / in life observation / clinical signs / abnormal feces + systemic / in life observation / clinical signs / arrhythmia + systemic…
[18] = systemic / clinical chemistry / cholesterol / cholesterol + systemic / clinical chemistry / gamma glutamyl transferase (ggt) / gamma …
[19] = systemic / clinical chemistry / aspartate aminotransferase (ast/sgot) / aspartate aminotransferase (ast/sgot) + systemic / clinical …
[20] = systemic / clinical chemistry / [other] / [other] + systemic / in life observation / body weight / body weight gain + systemic / in life …
[21] = systemic / pathology microscopic / liver / fatty change + systemic / pathology microscopic / liver / hypertrophy
[22] = systemic / organ weight / liver / relative to body weight + systemic / pathology microscopic / liver / cytoplasmic alteration + systemic / …
[23] = systemic / clinical chemistry / cholesterol / cholesterol + systemic / organ weight / liver / absolute + systemic / organ weight / liver / …
[24] = systemic / pathology gross / liver / enlarged
[25] = group: developmental, developmental / developmental malformation / bone / incomplete ossification + systemic / in life observation / body weight / fetal weight
[26] = group: maternal, systemic / in life observation / body weight / body weight gain + systemic / in life observation / food consumption / food consumption
[27] = systemic / organ weight / liver / absolute + systemic / organ weight / liver / relative to body weight + systemic / organ weight / liver / …
[28] = systemic / pathology gross / liver / [other] + systemic / pathology microscopic / thyroid gland / colloid content
[29] = systemic / organ weight / liver / relative to brain weight + systemic / pathology gross / liver / [other] + systemic / pathology microscopic…
[30] = systemic / pathology microscopic / spleen / pigmentation
[31] = systemic / in life observation / body weight / body weight + systemic / in life observation / body weight / body weight gain + systemic / in…
[32] = group: offspring, systemic / organ weight / brain / nos + systemic / in life observation / body weight / offspring (pup) weight + systemic / organ weight / …
[33] = systemic / clinical chemistry / alkaline phosphatase (alp/alk) / alkaline phosphatase (alp/alk) + systemic / clinical chemistry / …
[34] = systemic / clinical chemistry / alkaline phosphatase (alp/alk) / alkaline phosphatase (alp/alk) + systemic / in life observation / clinical …

With `CC[C@H]1CC[C@H](NCc2cc3c(cc2OC)[C@H]2C[C@H]2C(=O)N3C)[C@H](c2ccccc2)N1` the LEL (rat [1]) was 100 mg/kg/day, the LOAEL (rat [1]) was > 100 mg/kg/day and the NOAEL (rat [1]) was ≥ 100 mg/kg/day. The LEL (dog [2]; [16]) was 3 mg/kg/day, the NEL (dog [2]; [16]) was < 3 mg/kg/day and the LOAEL (dog [2]; [17]) was > 15 mg/kg/day. The NOAEL (dog [2]; [17]) was ≥ 15 mg/kg/day, the LOAEL (rat [3]; [18]) was > 100 mg/kg/day and the NEL (rat [3]; [18]) was 3 mg/kg/day. For the same compound, the NOAEL (rat [3]; [18]) was ≥ 100 mg/kg/day, the LEL (rat [3]; systemic / organ weight / liver / absolute) was 30 mg/kg/day and the LOAEL (rat [4]; [19]) was > 100 mg/kg/day. The NEL (rat [4]; [19]) was 3 mg/kg/day, the NOAEL (rat [4]; [19]) was ≥ 100 mg/kg/day and the LEL (rat [4]; systemic / in life observation / clinical signs / salivation + systemic / organ weight / liver / absolute) was 30 mg/kg/day. For the same compound, the LOAEL (rat [5]; [20]) was > 100 mg/kg/day, the NOAEL (rat [5]; [20]) was ≥ 100 mg/kg/day and the LEL (rat [5]; [21]) was 6 mg/kg/day. The NEL (rat [5]; [21]) was < 6 mg/kg/day.
`CSC1=N[C@@](C)(c2ccccc2)C(=O)N1Nc1ccccc1` [Fenamidone] was tested, and the LEL (rat [6]; systemic / clinical chemistry / aspartate aminotransferase (ast/sgot) / aspartate aminotransferase (ast/sgot)) was 10.4 mg/kg/day, the LOAEL (rat [6]; systemic / organ weight / liver / relative to body weight + systemic / pathology microscopic / liver / cytoplasmic alteration) was 68.3 mg/kg/day and the NEL (rat [6]; [22]) was 4.05 mg/kg/day. It also gave an NOAEL (rat [6]; [22]) of 10.4 mg/kg/day, an LOAEL (rat [7]; [23]) of 93.3 mg/kg/day and an NOAEL (rat [7]; [23]) of 9.4 mg/kg/day. For the same compound, the LEL (rat [7]; [24]) was 9.4 mg/kg/day, the NEL (rat [7]; [24]) was < 9.4 mg/kg/day and the LEL (rat [8]) was 305 mg/kg/day. The LOAEL (rat [8]) was 305 mg/kg/day, the NEL (rat [8]) was 29.7 mg/kg/day and the NOAEL (rat [8]) was 29.7 mg/kg/day. For the same compound, the LEL (rat [9]; [25]) was 1000 mg/kg/day, the LOAEL (rat [9]; [25]) was 1000 mg/kg/day and the NEL (rat [9]; [25]) was 150 mg/kg/day. The NOAEL (rat [9]; [25]) was 150 mg/kg/day, the LEL (rat [9]; [26]) was 1000 mg/kg/day and the LOAEL (rat [9]; [26]) was 1000 mg/kg/day. The NEL (rat [9]; [26]) was 150 mg/kg/day, the NOAEL (rat [9]; [26]) was 150 mg/kg/day and the LOAEL (rat [10]; [27]) was 32.9 mg/kg/day. The NOAEL (rat [10]; [27]) was 6.42 mg/kg/day, the LEL (rat [10]; [28]) was 6.42 mg/kg/day and the NEL (rat [10]; [28]) was < 6.42 mg/kg/day. For the same compound, the LOAEL (mouse [11]; [29]) was 220 mg/kg/day, the NOAEL (mouse [11]; [29]) was 44.5 mg/kg/day and the LEL (mouse [11]; [30]) was 11.3 mg/kg/day. For the same compound, the NEL (mouse [11]; [30]) was < 11.3 mg/kg/day, the LOAEL (mouse [12]; [31]) was 526 mg/kg/day and the NEL (mouse [12]; [31]) was 9.5 mg/kg/day. For the same compound, the NOAEL (mouse [12]; [31]) was 47.5 mg/kg/day, the LEL (mouse [12]; systemic / organ weight / liver / nos) was 47.5 mg/kg/day and the LOAEL (rat [13]; group: offspring) was 89.2 mg/kg/day. The LEL (rat [13]; group: offspring, systemic / organ weight / brain / nos + systemic / in life observation / body weight / offspring (pup) weight) was 89.2 mg/kg/day, the NEL (rat [13]; [32]) was 5.45 mg/kg/day and the NOAEL (rat [13]; [32]) was 5.45 mg/kg/day. The LEL (rat [13]; group: parental, systemic / in life observation / food consumption / food consumption) was 63.8 mg/kg/day, the NEL (rat [13]; group: parental, systemic / in life observation / food consumption / food consumption + systemic / in life observation / body weight / body weight + systemic…) was 3.9 mg/kg/day and the LOAEL (rat [13]; group: parental) was 89.2 mg/kg/day. For the same compound, the NOAEL (rat [13]; group: parental, systemic / organ weight / brain / nos + systemic / in life observation / body weight / body weight + systemic / organ weight / liver / …) was 5.45 mg/kg/day, the NEL (rat [14]; systemic / organ weight / uterus / absolute + systemic / organ weight / uterus / relative to body weight) was 335 mg/kg/day and the LOAEL (rat [14]; systemic / pathology microscopic / thyroid gland / hyperplasia) was 7.07 mg/kg/day. The NOAEL (rat [14]; systemic / pathology microscopic / thyroid gland / hyperplasia + systemic / clinical chemistry / alanine aminotransferase (alt/sgpt) / …) was 2.83 mg/kg/day, the LEL (dog [15]; [33]) was 1000 mg/kg/day and the LOAEL (dog [15]; [33]) was 1000 mg/kg/day. It also gave an NEL (dog [15]; [34]) of 100 mg/kg/day and an NOAEL (dog [15]; [34]) of 100 mg/kg/day.
